Assay results: publication PMC10974622, “Hybrid Peptide-Alkoxyamine Drugs: A Strategy for the Development of a New Family of Antiplasmodial Drugs” (Molecules, 2024)
Read-outs that look alike come from different tables or passages of the source.

Assays:
[1] = system: P. falciparum strain F32-ART (artemisinin-resistant); test: microbe, parasite or virus in culture; format: cell-based, Plasmodium falciparum; details: for Selectivity Index CC50/IC50: cytotoxicity (Vero cells)/antiplasmodial activity (F32-ART) ratio
Description: The antimalarial activity of peptide-alkoxyamine hybrids was first evaluated in the in vitro antiproliferative test (IC50) using the artemisinin-resistant strain F32-ART (Table 2, Table S1). The roles of the N-substitution of the alkoxyamine moiety (TEMPO- or DBNO-based, for example, A3L/A8L, line 1/line 10), of the configuration (L or D of the peptide, A3L/A3D, line 1/line 2), of the N-protection of the peptide (A3L/A4L or A5L, line 1/ lines 3 and 5) were examined. According to standard rules in the malaria field, only molecules having IC50 values below 1 μM were considered active.
The F32-ART (artemisinin-resistant) strain and the F32-TEM (artemisinin-sensitive strain) were cultured according to Trager and Jensen in RPMI 1640 medium (Fisher Scientific, Illkirch, France) supplemented with 5% human serum (Etablissement français du Sang, Toulouse, France) at 2% hematocrit with type O human blood (Etablissement français du Sang, Toulouse, France), 37 °C, and 5% CO2 in a humidified atmosphere.
(§1) IC50 values corresponding to 50% inhibition of P. falciparum growth were determined by SYBR Green assay, and the assessment of cytotoxicity was performed on Vero cells (cell line from the kidney of a normal adult African green monkey), as previously published. The selectivity index corresponded to the cytotoxicity/activity ratio.

[2] = system: F32-ART parasites at the quiescent stage; test: Quiescent-stage Survival Assay (QSA); format: cell-based, Plasmodium falciparum; details: 700 nM DHA 6 h/(DHA + molecule 7 µM) 48 h
Procedure: In this assay, parasites were exposed to dihydroartemisinin (DHA) alone to induce quiescence, prior the addition of the drug to be tested for 48 h, and then the parasite recrudescence was monitored over a maximum of 4 weeks. Activity against quiescent parasites was evidenced by a delay in recrudescence time over 6 days between the conditions “DHA 6 h / DHA 48 h” and “DHA 6 h/(DHA + molecule) 48 h”. Atovaquone was used as a positive control, and its activity against quiescent parasites was here confirmed, as expected, by an extended delay of 11 days in recrudescence time (Figure 5). By contrast, no activity of A8L and A3L against quiescent parasites was evidenced in the QSA, with similar recrudescence time between the conditions “DHA 6 h/DHA 48 h” and “DHA 6 h/(DHA + molecule) 48 h”. […] To understand this phenomenon, we explored the parasite response during treatment with these hybrid compounds.
The QSA was performed according to Reyser et al.. Briefly, ART-resistant ring-stage parasites at 3% parasitemia were exposed for 6 h to 700 nM of DHA (dihydroartemisinin) to induce quiescence or were exposed to no drugs (control condition). After that, the compound to be tested was added in both conditions […]. At the end of the treatment, the drugs were washed off with RPMI-1640, and parasites were replaced in drug-free conditions. Blood smears were performed to follow parasitemia until the day the cultures reached their starting parasitemia, defined as the recrudescence day. If after 30 days no parasite recrudescence was observed, then the data were censored. Data analysis was performed using Kaplan–Meier survival curves. Statistical significance was ascertained by using a log-rank (Mantel-Cox) test using GraphPad Prism 7 software (San Diego, CA, USA).

F32-ART parasites = test: Parasitemia monitoring and parasite morphology upon drug exposure, F32-ART ring-stage parasites; format: cell-based, Plasmodium falciparum; details: 48 h exposure
Procedure: (§2) The effect of hybrid compounds against Plasmodium parasites was assessed by the microscopic examination of parasite morphology upon drug exposure. For this purpose, parasites were synchronized at 0–4 h age by percoll-sorbitol treatment, 0–24 h age by sorbitol treatment, or at schizont stage by percoll treatment at the start of the experiment. Different treatment schedules were tested. In the case of multiple doses, parasite cultures were washed before each new drug addition.

Vero cells [3] = details: cited from earlier work
S. mansoni = system: S. mansoni; design: method as in doi:10.1021/cr00014a008; details: 100 μg/mL, in 2 h, in vitro ref 22; cited from earlier work
in vitro = format: cell-based, African green monkey; details: African green monkey, Cytotoxicity CC50
Procedure: as §1

[4] = Kinetic analysis of alkoxyamine bond homolysis by EPR; format: physicochemical; details: Equation (2), A = 2.4 · 10^14 s^−1
Procedure: The kinetic homolysis for peptide-alkoxyamines reported in Table 1 was recorded in EPR using two solvents, tert-butylbenzene (t-BuPh) or an n-propanol:water (1:1, v:v) mixture. The growth of nitroxide was recorded in the presence of an alkyl radical scavenger, i.e., O2 here, to suppress the back reaction (kc in Scheme 4), as already reported.
Homolysis rate constants kd are given by Equation (1) ([nitroxide]∞ = [alkoxyamine]0 = 0.1 mM), and the subsequent activation energy values Ea are given by Equation (2), as follows:(1) lnnitroxide∞−nitroxidet/nitroxide∞=−kd·t (2) Ea=−RTlnkd/A

[5] = Thermolysis of A8L in DMSO with or without hemin, LC-MS; format: physicochemical; details: 80 °C, 1 h
Procedure: Since a putative antimalarial mechanism of action of these hybrid drugs was the alkylation of heme within the parasite food vacuole, the reactivity of the hybrid having the lower IC50 value, namely A8L (Table 2), was evaluated in the presence (or absence) of heme. In the absence of any protease activity able to cleave the tripeptide fragment, the alkoxyamine C–O bond was stable at room temperature; thus, thermolysis was carried out in DMSO at 80 °C for 1 h under an air atmosphere to achieve a nearly complete reaction (88–90% of conversion of A8L). The reaction was monitored by LC-MS analysis, and products A–F were detected and quantified (Figure 4). […] Products B, C, and D, resulting from the capture of dioxygen by the alkyl radical, were the major ones, with yields of 30%, 13%, and 21%, respectively, with respect to the starting amount of A8L. B and C have already been detected as thermolysis products of uncoupled alkoxyamine.
In a test tube equipped with a magnetic stirrer, 20 μL of a stock solution of A8L (10 mM in DMSO) was added to 180 μL of DMSO. […] Retention times and detected m/z values (amu) were as follows: JP2310, 20.8 min, 758.5 (MH^+), 702.4 (fragment); A, 27.4 min, 615.4 (MH^+); B, 21.2 min, 629.3 (MH^+); C, 20.1 min, 631.4 (MH^+); D, 20.3 min, 647.3 (MH^+); F, 25.7 min, 613.3 (MH^+); hemin, 17.3 min, 616.2 (M^+).

[6] = system: F32-TEM parasites (artemisinin-sensitive); test: Parasitemia monitoring with different treatment schedules, F32-TEM parasites; format: cell-based, Plasmodium falciparum
[7] = system: P. falciparum parasites at the schizont stage; test: Efficacy on the re-invasion step, post-percoll schizonts treated 15 h; format: cell-based, Plasmodium falciparum
Procedure: We wondered if this activity was due to a specific effect of the drug toward the schizont stage and re-invasion step of the parasite life cycle. However, treatment of parasites at the schizont stage for 15 h with A8L had no effect on parasite viability or development (Figure 8), highlighting that the mechanism of action of A8L has yet to be identified.
as §2

Vero cells [8] = test: in vitro; format: cell-based, African green monkey; details: African green monkey
Procedure: as §1

chymotrypsin = molecular target: T1, chymotrypsin (Bos taurus, UniProt P00766); test: Enzymatic activation and homolysis monitored by EPR, chymotrypsin; format: biochemical; details: 37 °C
T1 construct: purchased Worthington
Procedure: Due to the low solubility of A3L/D–A5L/D in water, suitable concentrations (ca. 0.1 mM) for EPR detection could not be reached. Thus, A7L was prepared, which afforded a carboxylate function at a physiological pH. […] As other PLMs were not available, chymotrypsin, a pancreatic protease that accepts substrates with Phe in the P1 position, was used to hydrolyse A7L. The release of the free alkoxyamine, which decomposed spontaneously and rapidly into alkyl radical R3• and nitroxide R1R2NO•, and the concentration in nitroxide was monitored with EPR (Figure 3).
Kinetics were performed in HEPES 50 mM buffer containing […] at 37 °C. Then, 2.5 mM of hemin (Santa Cruz biotechnology, Heidelberg, Germany) was added to scavenge the alkyl radicals. In one, kinetic Chymotrypsin (Worthington, OH, USA) was added. Activation and homolysis were monitored by reading the concentrations of released TEMPO using, versus time, a calibrated EPR spectrometer (EMX Nano, Bruker, Wissembourg, France).

PLM I = PLM I (Plasmodium falciparum, UniProt P39898); test: Enzymatic activation monitored by EPR, PLM I; format: biochemical
Solubility in water = format: physicochemical
[9] = Plasmodium falciparum, F32, read-out: Antiplasmodial Activity IC50, strain F32-ART, SYBR Green assay, mean ± SEM of 3 to 6 experiments
[10] = Plasmodium falciparum, F32, read-out: Antiplasmodial IC50, strain F32-ART
[11] = read-out: Antiplasmodial Activity IC50, strain F32-ART, SYBR Green assay, mean ± SEM of 3 to 6 experiments

Chain of PLM I (P39898 124-452): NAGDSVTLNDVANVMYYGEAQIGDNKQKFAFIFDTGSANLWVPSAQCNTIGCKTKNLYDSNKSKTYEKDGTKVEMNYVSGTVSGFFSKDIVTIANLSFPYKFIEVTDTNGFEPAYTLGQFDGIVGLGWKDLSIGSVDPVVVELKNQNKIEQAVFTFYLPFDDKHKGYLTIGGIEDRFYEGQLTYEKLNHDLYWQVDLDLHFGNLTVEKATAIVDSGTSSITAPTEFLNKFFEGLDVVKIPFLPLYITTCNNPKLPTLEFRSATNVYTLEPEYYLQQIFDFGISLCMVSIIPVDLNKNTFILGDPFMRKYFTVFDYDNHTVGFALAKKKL

Q: Which results are given for CC(ON1C(C)(C)CCCC1(C)C)c1ccc(NC(=O)[C@H](Cc2ccccc2)NC(=O)[C@@H](NC(=O)[C@H](Cc2ccccc2)NC(=O)OC(C)(C)C)C(C)C)cc1 (stereo partly drawn) [A3L, Boc-Phe-Val-Phe-anilide-TEMPO]?
A: IC50 [1, 9]: 300 ± 40 nM; IC50 [1, 10]: 270 nM; Selectivity Index CC50/IC50 [1]: >165; activity against quiescent parasites in the QSA [2]: no activity; effect on parasitemia and parasite cell cycle (F32-ART parasites): cytostatic-like effect; CC50 (Vero cells [3]): > 50000 nM

Q: What does the source list for CC(ON1C(C)(C)CCCC1(C)C)c1ccc(NC(=O)[C@H](Cc2ccccc2)NC(=O)[C@@H](NC(=O)[C@@H](N)Cc2ccccc2)C(C)C)cc1 (stereo partly drawn) [A5L]?
A: IC50 [1, 11]: > 50000 nM; schistosomal population killed (S. mansoni): 50%; CC50 (Vero cells [3]): > 50000 nM

Q: Which results are given for CC(ON(C(C)(C)C)C(C)(C)C)c1ccc(NC(=O)[C@H](Cc2ccccc2)NC(=O)[C@@H](NC(=O)[C@H](Cc2ccccc2)NC(=O)OC(C)(C)C)C(C)C)cc1 (stereo partly drawn) [A8L]?
A: IC50 [1, 9]: 270 ± 40 nM; IC50 [1, 10]: 300 nM; Selectivity Index CC50/IC50 [1]: >185; CC50 (in vitro): > 50000 nM; activation energy Ea ([4]; in t-BuPh): 28.9 kcal/mol; activation energy Ea ([4]; in water/n-PrOH 1/1 v/v): 28.9 kcal/mol; conversion of A8L on thermolysis ([5]; A8L/hemin molar ratio 1/1): 88–89%; conversion of A8L on thermolysis ([5]; air, absence of hemin): 88–90%; activity against quiescent parasites in the QSA [2]: no activity; effect on parasitemia and parasite cell cycle (F32-ART parasites): cytostatic-like effect; effect on parasite cell cycle ([6]; F32-TEM, 5 µM 48 h): cytostatic-like effect; effect of repeated exposure for at least three days ([6]; once or twice a day for three days): elimination of parasites in a dose-dependent manner; effect on parasite viability or development [7]: no effect

Q: With CC(ON(C(C)(C)C)C(C)(C)C)c1ccc(NC(=O)[C@@H](Cc2ccccc2)NC(=O)[C@H](NC(=O)[C@H](N)Cc2ccccc2)C(C)C)cc1 (stereo partly drawn) [AW231] as the compound, how does the IC50 [1, 11] read?
A: 4480 ± 290 nM

Q: What about the CC50 (Vero cells [8]) of the same compound?
A: 6600 ± 400 nM

Q: With CC(ON1C(C)(C)CCCC1(C)C)c1ccc(NC(=O)[C@H](Cc2ccccc2)NC(=O)[C@@H](NC(=O)[C@H](Cc2ccccc2)NC(=O)CCC(=O)O)C(C)C)cc1 (stereo partly drawn) [A7L, suc-Phe-Val-Phe-anilide-TEMPO] as the compound, how does the IC50 [1, 9] read?
A: 5000 ± 3000 nM

Q: What about the “Selectivity Index CC50/IC50” value [1] of the same compound?
A: >10

Q: What about the “stability of the prodrug” value (chymotrypsin; absence of chymotrypsin) of the same compound?
A: stable at 37 °C

Q: What about the “activation by protease, release of nitroxide (EPR)” value (chymotrypsin; presence of chymotrypsin, HEPES buffer) of the same compound?
A: activatable by chymotrypsin

Q: What about the “EPR signal of TEMPO in the presence of PLM I” value (PLM I) of the same compound?
A: no EPR signal of TEMPO could be observed

Q: What about the “pH above which soluble” value (Solubility in water) of the same compound?
A: above 5.5

Q: And the CC50 (Vero cells [3])?
A: > 50000 nM

Q: Which IC50 [1, 9] does the source give for CC(ON1C(C)(C)CCCC1(C)C)c1ccc(NC(=O)[C@@H](Cc2ccccc2)NC(=O)[C@H](NC(=O)[C@H](N)Cc2ccccc2)C(C)C)cc1 (stereo partly drawn) [A4D] here?
A: 2200 to 2600 nM

Q: And the “Selectivity Index CC50/IC50” value [1]?
A: 1.1

Q: And the IC50 [1, 11]?
A: 2300 ± 300 nM

Q: And the CC50 (in vitro)?
A: 2200 to 2600 nM

Q: And the CC50 (Vero cells [8])?
A: 2600 ± 300 nM

Q: For CC(ON1C(C)(C)CCCC1(C)C)c1ccc(NC(=O)[C@H](Cc2ccccc2)NC(=O)[C@@H](NC(=O)[C@@H](N)Cc2ccccc2)C(C)C)cc1 (stereo partly drawn) [A4L], which IC50 [1, 9] is on record?
A: > 50000 nM

Q: What about the schistosomal population killed (S. mansoni) of the same compound?
A: 50%

Q: And the CC50 (Vero cells [3])?
A: > 50000 nM
